Among the data in patent US20180155344A1, “TRICYCLIC PIPERIDINE COMPOUNDS” (ACTELION PHARMACEUTICALS LTD, priority 2015, published 2018) are IC50 values, retold here.

The first assay has as its target T1, human TPH1 (Homo sapiens, UniProt P17752).
T1 sequence (P17752 1-444): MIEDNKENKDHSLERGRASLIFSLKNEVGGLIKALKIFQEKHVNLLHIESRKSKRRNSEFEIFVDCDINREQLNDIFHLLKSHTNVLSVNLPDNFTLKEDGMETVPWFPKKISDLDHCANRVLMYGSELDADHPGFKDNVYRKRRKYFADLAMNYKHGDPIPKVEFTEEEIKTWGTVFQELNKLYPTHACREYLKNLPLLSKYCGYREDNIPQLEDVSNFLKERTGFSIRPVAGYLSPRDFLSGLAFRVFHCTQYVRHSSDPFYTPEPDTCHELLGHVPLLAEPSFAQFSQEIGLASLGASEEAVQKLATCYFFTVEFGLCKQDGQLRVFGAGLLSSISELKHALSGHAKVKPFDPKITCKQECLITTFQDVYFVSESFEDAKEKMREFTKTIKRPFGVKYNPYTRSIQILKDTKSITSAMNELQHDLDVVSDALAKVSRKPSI
The assay can be described thus: biochemical.
Conditions: not given
An excerpt:
Biochemical In Vitro Assay Using Fluorescence Readout
To generate the enzyme, full length human TPH1 is cloned into the plasmid pET20b(+) (Novagen) and expressed in E. coli. The bacterial cells are ruptured by sonication on ice and the lysate is cleared by centrifugation. The resulting protein in the pellet is re-extracted and TPH1 is purified from the obtained lysate by affinity chromatography using a pterin cosubstrate analog immobilized to the resin of the column. The protein is further purified by size exclusion chromatography to remove protein aggregates. The activity of TPH1 is determined by using a fluorescence assay. The enzyme activity assay is carried out at 15° C. with atmosphere oxygen for the duration of 60 minutes in a volume of 64 μl. The reaction is carried out in a 0.1 M Tris-HCl buffer, adjusted to pH 7.6, containing 1 mM DTT, 0.2 mg/mL catalase, 100 μM (±)-6-methyl-5,6,7,8-tetrahydropterine dihydrochloride, 40 μM L-tryptophan, and 40-80 nM of TPH1. The reaction is started by bringing together L-tryptophan with all the other reaction substituents and stopped by quenching with perchloric acid (HClO4). The amount of 5-hydroxy-L-tryptophan produced during the enzymatic reaction is determined by fluorescence readout. Fluorescence, as determined at 540 nm when excited at 300 nm wavelength, increases proportionally to the 5-hydroxy-L-tryptophan formed. Compounds are prepared as 10 mM stock solution in DMSO, then diluted in 384-well plates using DMSO followed by a transfer of the dilutions into the assay plate. Fluorescence is measured for each well and the fluorescence at 540 nm wavelength is compared to the fluorescence of the vehicle in place of compound. […] The calculated IC50 values may fluctuate depending on the daily biochemical assay performance. Fluctuations of this kind are known to those skilled in the art.
As for `COc1ccc(C2c3c(nc4ccccn34)CCN2C(=O)COc2cc(C)ccc2C)cc1OC` (stereo not shown) [Example 1.1.1, 1-(1-(3,4-dimethoxyphenyl)-3,4-dihydroimidazo[1,2-a:5,4-c′]dipyridin-2(1H)-yl)-2-(2,5-dimethylphenoxy)ethan-1-one], the concentration for half-maximal inhibition (IC50) was 418 nM.
Turning to `COc1ccc(C2c3c(nc4ccccn34)CCN2C(=O)COc2ccc(C)cc2C)cc1OC` (stereo not shown) [Example 1.1.2, 1-(1-(3,4-dimethoxyphenyl)-3,4-dihydroimidazo[1,2-a:5,4-c′]dipyridin-2(1H)-yl)-2-(2,4-dimethylphenoxy)ethan-1-one], the midpoint of inhibition, the IC50, lay at 180 nM.
Still for that read-out and setting: in the case of `COc1ccc(C2c3c(nc4ccccn34)CCN2C(=O)COc2cccc3ccccc23)cc1OC` (stereo not shown) [Example 1.1.3, 1-(1-(3,4-dimethoxyphenyl)-3,4-dihydroimidazo[1,2-a:5,4-c′]dipyridin-2(1H)-yl)-2-(naphthalen-1-yloxy)ethan-1-one] it was 134 nM; in that of `COc1ccc(C2c3c(nc4ccccn34)CCN2C(=O)COc2ccc(Cl)cc2Cl)cc1OC` (stereo not shown) [Example 1.1.4, 2-(2,4-dichlorophenoxy)-1-(1-(3,4-dimethoxyphenyl)-3,4-dihydroimidazo[1,2-a:5,4-c′]dipyridin-2(1H)-yl)ethan-1-one], 69 nM.
Same read-out and setting: under `COc1ccc(C2c3c(nc4ccccn34)CCN2C(=O)COc2ccc3ccccc3c2)cc1OC` (stereo not shown) [Example 1.1.5, 1-(1-(3,4-dimethoxyphenyl)-3,4-dihydroimidazo[1,2-a:5,4-c′]dipyridin-2(1H)-yl)-2-(naphthalen-2-yloxy)ethan-1-one] stands 24 nM; under `COc1ccc(C2c3c(nc4ccccn34)CCN2C(=O)COc2ccc3ccccc3c2C)cc1OC` (stereo not shown) [Example 1.1.6, 1-(1-(3,4-dimethoxyphenyl)-3,4-dihydroimidazo[1,2-a:5,4-c′]dipyridin-2(1H)-yl)-2-((1-methylnaphthalen-2-yl)oxy)ethan-1-one], 12 nM; under `CCc1c(OCC(=O)N2CCc3nc4ccccn4c3C2c2ccc(OC)c(OC)c2)ccc2ccccc12` (stereo not shown) [Example 1.1.7, 1-(1-(3,4-dimethoxyphenyl)-3,4-dihydroimidazo[1,2-a:5,4-c′]dipyridin-2(1H)-yl)-2-((1-ethylnaphthalen-2-yl)oxy)ethan-1-one], 4 nM.
On the same count and under the same terms, in the case of `COc1ccc(C2c3c(nc4ccccn34)CCN2C(=O)COc2ccc3ccccc3c2Br)cc1OC` (stereo not shown) [Example 1.1.8, 2-((1-bromonaphthalen-2-yl)oxy)-1-(1-(3,4-dimethoxyphenyl)-3,4-dihydroimidazo[1,2-a:5,4-c′]dipyridin-2(1H)-yl)ethan-1-one] it was 9 nM; in that of `COc1ccc(C2c3c(nc4ccccn34)CCN2C(=O)COc2ccc3ccccc3c2Cl)cc1OC` (stereo not shown) [Example 1.1.9, 2-((1-chloronaphthalen-2-yl)oxy)-1-(1-(3,4-dimethoxyphenyl)-3,4-dihydroimidazo[1,2-a:5,4-c′]dipyridin-2(1H)-yl)ethan-1-one], 8 nM; in that of `CCOC(=O)c1cc(OCC(=O)N2CCc3nc4ccccn4c3C2c2ccc(OC)c(OC)c2)c(CC)cc1C` (stereo not shown) [Example 1.1.10, ethyl 5-(2-(1-(3,4-dimethoxyphenyl)-3,4-dihydroimidazo[1,2-a:5,4-c′]dipyridin-2(1H)-yl)-2-oxoethoxy)4-ethyl-2-methylbenzoate], 92 nM.
Regarding `CCc1cc(C)c(C(N)=O)cc1OCC(=O)N1CCc2nc3ccccn3c2C1c1ccc(OC)c(OC)c1` (stereo not shown) [Example 1.1.11, 5-(2-(1-(3,4-dimethoxyphenyl)-3,4-dihydroimidazo[1,2-a:5,4-c′]dipyridin-2(1H)-yl)-2-oxoethoxy)-4-ethyl-2-methylbenzamide], half-maximal inhibition (IC50) required 248 nM.
Still for that read-out and setting: in the case of `CCc1cc(C)c(C(=O)NC)cc1OCC(=O)N1CCc2nc3ccccn3c2C1c1ccc(OC)c(OC)c1` (stereo not shown) [Example 1.1.12, 5-(2-(1-(3,4-dimethoxyphenyl)-3,4-dihydroimidazo[1,2-a:5,4-c′]dipyridin-2(1H)-yl)-2-oxoethoxy)-4-ethyl-N,2-dimethylbenzamide] it was 141 nM; in that of `O=C(COc1ccc(CN2CCOCC2)cc1Cl)N1CCc2nc3ccccn3c2C1c1cccnc1F` (stereo not shown) [Example 1.2.1, 2-(2-chloro-4-(morpholinomethyl)phenoxy)-1-(1-(2-fluoropyridin-3-yl)-3,4-dihydroimidazo[1,2-a:5,4-c′]dipyridin-2(1H)-yl)ethan-1-one], 209 nM; in that of `COc1ccc(C2c3c(nc4ccccn34)CCN2C(=O)COc2ccc(CN3CCOCC3)nc2Cl)c(F)c1` (stereo not shown) [Example 1.3.1, 2-((2-chloro-6-(morpholinomethyl)pyridin-3-yl)oxy)-1-(1-(2-fluoro-4-methoxyphenyl)-3,4-dihydroimidazo[1,2-a:5,4-c′]dipyridin-2(1H)-yl)ethan-1-one], 84 nM.
As to `COc1ccc(C2c3c(nc4ccccn34)CCN2C(=O)COc2ccc(NS(C)(=O)=O)nc2Cl)c(F)c1` (stereo not shown) [Example 1.3.2, N-(6-chloro-5-(2-(1-(2-fluoro-4-methoxyphenyl)-3,4-dihydroimidazo[1,2-a:5,4-c′]dipyridin-2(1H)-yl)-2-oxoethoxy)pyridin-2-yl)methanesulfonamide], the IC50 is 40 nM.
`COc1ccc(C2c3c(nc4ccccn34)CCN2C(=O)COc2ccc(C(=O)NC3CC3)nc2Cl)c(F)c1` (stereo not shown) [Example 1.3.3, 6-chloro-N-cyclopropyl-5-(2-(1-(2-fluoro-4-methoxyphenyl)-3,4-dihydroimidazo[1,2-a:5,4-c′]dipyridin-2(1H)-yl)-2-oxoethoxy)picolinamide] showed a half-maximal inhibitory concentration (IC50) of 19 nM.
On the same count and under the same terms, under `Cc1cc(Cl)ccc1OCC(=O)N1CCc2nc3ccccn3c2C1c1ccc(Cl)cc1F` (stereo not shown) [Example 1.4.1, 1-(1-(4-chloro-2-fluorophenyl)-3,4-dihydroimidazo[1,2-a:5,4-c′]dipyridin-2(1H)-yl)-2-(4-chloro-2-methylphenoxy)ethan-1-one] stands 18 nM; under `CCc1ncccc1OCC(=O)N1CCc2nc3ccccn3c2C1c1ccc(Cl)cc1F` (stereo not shown) [Example 1.4.2, 1-(1-(4-chloro-2-fluorophenyl)-3,4-dihydroimidazo[1,2-a:5,4-c′]dipyridin-2(1H)-yl)-2-((2-ethylpyridin-3-yl)oxy)ethan-1-one], 55 nM.

The same assay, now with this note: Table 1; full length human TPH1, 40 μM L-tryptophan, 15° C., 60 minutes; mean if determined several times.
“1-(1-(4-(aminomethyl)phenyl)-7-(trifluoromethyl)-3,4-dihydroimidazo[1,2-a:5,4-c′]dipyridin-2(1H)-yl)-2-(2-chloro-4-(morpholinomethyl)phenoxy)ethan-1-one [Example 3.31.2]” yielded an IC50 of 145 nM.
The same measure, in the same setting: under “1-(1-(4-(aminomethyl)phenyl)-7-(trifluoromethyl)-3,4-dihydroimidazo[1,2-a:5,4-c′]dipyridin-2(1H)-yl)-2-(naphthalen-2-yloxy)ethan-1-one [Example 3.31.1]” stands 73 nM; under “2-((6-(aminomethyl)-2-chloropyridin-3-yl)oxy)-1-(9-(5-cyclopropyl-3-fluoropyridin-2-yl)-6,9-dihydropyrido[4′,3′:4,5]imidazo[1,2-b]pyridazin-8(7H)-yl)ethan-1-one [Example 16.2.4]”, 401 nM.

The assay is the same for the next values; noted with them: Table 3; inhibitory activity on tryptophan hydroxylase 1.
The molecule “1-(1-(3,4-dimethoxyphenyl)-7-(trifluoromethyl)-3,4-dihydroimidazo[1,2-a:5,4-c′]dipyridin-2(1H)-yl)-2-(3-(trifluoromethyl)phenoxy)ethan-1-one [Example 3.1.10]” returned an IC50 of 251 nM.
